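Compound exposure: 48 hours, 5 concentrations, 96-well plates. Abbreviation: GI50, concentration required for 50% inhibition of growth.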 The source made the active and inactive calls. Cut-off read from the data, not from the text of the source: active = GI50 up to about 1.1 µM and inactive = higher.
Key:
Test in all cases: growth of human tumour cells (NCI), 48 h
U-251 = system: U-251
HCC 2998 = system: HCC 2998
M19-MEL = system: M19-MEL
NCI-H522 = system: NCI-H522
M14 = system: M14
NCI-H23 = system: NCI-H23
EKVX = system: EKVX
CAKI-1 = system: CAKI-1
XF498 = system: XF498
LXFL 529 = system: LXFL 529
HOP-62 = system: HOP-62
DMS-273 = system: DMS-273
KM12 = system: KM12
DMS-114 = system: DMS-114
A549 = system: A549
NCI-H460 = system: NCI-H460
DU-145 = system: DU-145
T47D = system: T47D
MDA-MB-435 = system: MDA-MB-435

Measured: GI50

O=[N+]([O-])c1nc(-c2ccccn2)[nH]c1[N+](=O)[O-]
inactive: U-251 55.2 µM | HCC 2998 96.4 µM | M19-MEL 57.7 µM | NCI-H522 18.6 µM | M14 80.5 µM | NCI-H23 42.4 µM | EKVX > 100 µM | CAKI-1 57.7 µM | XF498 > 100 µM | LXFL 529 89.1 µM | HOP-62 > 100 µM | DMS-273 65.8 µM | KM12 > 100 µM | DMS-114 19 µM | A549 53.8 µM | NCI-H460 36.6 µM

Cc1cc(Cl)cc2c1NC(=O)C2(O)CC(=O)c1ccco1 (stereo not drawn)
inactive: U-251 > 90.6 µM | HCC 2998 > 100 µM | M19-MEL 15.6 µM | NCI-H522 > 100 µM | M14 > 66.2 µM | NCI-H23 > 53.7 µM | EKVX > 100 µM | CAKI-1 > 100 µM | XF498 > 100 µM | LXFL 529 > 100 µM | DU-145 > 100 µM | HOP-62 > 100 µM | DMS-273 > 100 µM | KM12 > 75.9 µM | DMS-114 > 100 µM | T47D > 100 µM | MDA-MB-435 2.92 µM | A549 > 70.6 µM | NCI-H460 > 100 µM

CC12CCC3=C(CSC4=C3CSc3ccccc34)C1=CCCC2=O (stereo not drawn)
inactive: U-251 42.8 µM | HCC 2998 47.4 µM | M19-MEL 86.9 µM | NCI-H522 27.4 µM | M14 27.8 µM | NCI-H23 > 100 µM | EKVX 42.5 µM | CAKI-1 35.1 µM | XF498 19.7 µM | LXFL 529 37.1 µM | HOP-62 20.4 µM | DMS-273 82.8 µM | KM12 54.2 µM | DMS-114 69.5 µM | A549 36.5 µM | NCI-H460 45.2 µM

COc1cc2c(oc(=O)c3cc4ccoc4c(OC)c32)c2cccc(O)c12
inactive: U-251 > 100 µM | HCC 2998 > 100 µM | M19-MEL > 100 µM | NCI-H522 > 100 µM | M14 > 100 µM | NCI-H23 > 100 µM | EKVX > 100 µM | CAKI-1 > 100 µM | XF498 > 100 µM | LXFL 529 > 100 µM | HOP-62 > 100 µM | DMS-273 > 100 µM | KM12 > 100 µM | DMS-114 > 100 µM | A549 > 100 µM | NCI-H460 > 100 µM

COC(=O)C(C(=O)C(N)=O)c1csc(-n2nc(-c3ccccc3)cc2-c2ccccc2)n1 (stereo not drawn)
inactive: U-251 24.5 µM | HCC 2998 > 31.6 µM | M19-MEL > 31.6 µM | NCI-H522 27.6 µM | M14 > 31.6 µM | NCI-H23 > 100 µM | EKVX 13.9 µM | CAKI-1 10.6 µM | XF498 25.2 µM | LXFL 529 > 31.6 µM | HOP-62 > 10 µM | DMS-273 > 31.6 µM | KM12 22.6 µM | DMS-114 12.8 µM | A549 > 31.6 µM | NCI-H460 > 31.6 µM

— ChEMBL document CHEMBL1201862, “PubChem BioAssay data set” (2004)
